Measurements taken from the NIST ThermoML archive (doi:10.1016/j.jct.2012.03.005).
± gives the expanded uncertainty stated by the source.

Assay: activity coefficient (dimensionless); of the first substance listed, at infinite dilution; xn = mol fraction of the nth substance listed
Conditions: 101 kPa, Liquid, Chromatography, x1 = 0

SMILES	activity coefficient (308.15 K)	activity coefficient (318.15 K)	activity coefficient (328.15 K)	activity coefficient (338.15 K)	activity coefficient (348.15 K)	activity coefficient (358.15 K)
Cc1ccccc1C [1,2-dimethylbenzene] + CCn1cc[n+](C)c1.CS(=O)(=O)[O-]	15 ± 1	14.6 ± 1	14.3 ± 1	14 ± 1	13.8 ± 0.9	13.5 ± 0.9
Cc1cccc(C)c1 [1,3-dimethylbenzene] + CCn1cc[n+](C)c1.CS(=O)(=O)[O-]	19.7 ± 1.3	19.1 ± 1.3	18.6 ± 1.3	18.1 ± 1.2	17.6 ± 1.2	17.1 ± 1.2
Cc1ccc(C)cc1 [1,4-dimethylbenzene] + CCn1cc[n+](C)c1.CS(=O)(=O)[O-]	18.6 ± 1.3	18.7 ± 1.3	18.7 ± 1.3	18.8 ± 1.3	18.8 ± 1.3	18.9 ± 1.3
C1COCCO1 [1,4-dioxane] + CCn1cc[n+](C)c1.CS(=O)(=O)[O-]	2.6 ± 0.18	2.63 ± 0.18	2.67 ± 0.18	2.69 ± 0.18	2.72 ± 0.19	2.73 ± 0.19
C=CCCCCCCCC [1-decene] + CCn1cc[n+](C)c1.CS(=O)(=O)[O-]	654 ± 45	584 ± 40	528 ± 36	479 ± 33	434 ± 30	
C#CCCCCC [1-heptyne] + CCn1cc[n+](C)c1.CS(=O)(=O)[O-]	14.4 ± 1	14.6 ± 1	14.5 ± 1	14.6 ± 1	14.6 ± 1	
C#CCCCC [1-hexyne] + CCn1cc[n+](C)c1.CS(=O)(=O)[O-]	7.87 ± 0.54	8.07 ± 0.55	8.06 ± 0.55	8.29 ± 0.57	8.27 ± 0.56	
CCC[N+](=O)[O-] [1-nitropropane] + CCn1cc[n+](C)c1.CS(=O)(=O)[O-]	2.36 ± 0.16	2.37 ± 0.16	2.37 ± 0.16	2.38 ± 0.16	2.39 ± 0.16	2.39 ± 0.16
CCOC(C)(C)C [2-ethoxy-2-methylpropane] + CCn1cc[n+](C)c1.CS(=O)(=O)[O-]	66.5 ± 4.6	60.8 ± 4.2	57.1 ± 3.9	53.5 ± 3.7	50 ± 3.4	
CCC(C)(C)OC [2-methoxy-2-methylbutane] + CCn1cc[n+](C)c1.CS(=O)(=O)[O-]	40.3 ± 2.8	37.8 ± 2.6	35.8 ± 2.5	34 ± 2.3	32.6 ± 2.2	
C=C(C)c1ccccc1 [(1-methylethenyl)benzene] + CCn1cc[n+](C)c1.CS(=O)(=O)[O-]	10.7 ± 0.7	10.9 ± 0.7	11.1 ± 0.8	11.2 ± 0.8	11.3 ± 0.8	11.5 ± 0.8
CC(C)=O [acetone] + CCn1cc[n+](C)c1.CS(=O)(=O)[O-]	308 ± 21	318 ± 22	328 ± 23	338 ± 23	348 ± 24	358 ± 25
C1CCCCCCC1 [cyclooctane] + CCn1cc[n+](C)c1.CS(=O)(=O)[O-]	163 ± 11	143 ± 10	128 ± 9	114 ± 8	101 ± 7	
CCCCCCCCCC [decane] + CCn1cc[n+](C)c1.CS(=O)(=O)[O-]	1320 ± 91	1180 ± 82	1040 ± 72	925 ± 64	835 ± 58	762 ± 53
CCOCC [diethyl ether] + CCn1cc[n+](C)c1.CS(=O)(=O)[O-]	19.2 ± 1.3	18.2 ± 1.2	17.5 ± 1.2	16.8 ± 1.1	16.1 ± 1.1	
CC(C)OC(C)C [diisopropyl ether] + CCn1cc[n+](C)c1.CS(=O)(=O)[O-]	79.6 ± 5.5	74.3 ± 5.1	68.7 ± 4.7	64.8 ± 4.4	60.6 ± 4.2	
CCO [ethanol] + CCn1cc[n+](C)c1.CS(=O)(=O)[O-]	0.489 ± 0.037	0.483 ± 0.037	0.479 ± 0.037	0.474 ± 0.037	0.47 ± 0.04	0.467 ± 0.036
CCc1ccccc1 [ethylbenzene] + CCn1cc[n+](C)c1.CS(=O)(=O)[O-]	18.1 ± 1.2	17.5 ± 1.2	17.1 ± 1.2	16.5 ± 1.1	16.1 ± 1.1	15.6 ± 1.1
C=CCCCC [hex-1-ene] + CCn1cc[n+](C)c1.CS(=O)(=O)[O-]	85.1 ± 5.8	77.1 ± 5.3	70.4 ± 4.8	63.9 ± 4.4		
CCCO [propan-1-ol] + CCn1cc[n+](C)c1.CS(=O)(=O)[O-]	0.761 ± 0.05	0.75 ± 0.05	0.736 ± 0.049	0.724 ± 0.048	0.716 ± 0.048	0.708 ± 0.047
c1ccncc1 [pyridine] + CCn1cc[n+](C)c1.CS(=O)(=O)[O-]	1.56 ± 0.1	1.57 ± 0.1	1.59 ± 0.11	1.6 ± 0.1	1.62 ± 0.11	1.64 ± 0.11
C=Cc1ccccc1 [styrene] + CCn1cc[n+](C)c1.CS(=O)(=O)[O-]	5.68 ± 0.39	5.71 ± 0.39	5.75 ± 0.39	5.79 ± 0.39	5.82 ± 0.4	5.85 ± 0.4

Continued, values first:

activity coefficient (308.15 K)	activity coefficient (318.15 K)	activity coefficient (328.15 K)	activity coefficient (338.15 K)	activity coefficient (348.15 K)	activity coefficient (358.15 K)	SMILES
148 ± 10	134 ± 9	122 ± 8	112 ± 8	102 ± 7		C=CCCCCC [1-heptene] + CCn1cc[n+](C)c1.CS(=O)(=O)[O-]
26.2 ± 1.8	26.2 ± 1.8	25.6 ± 1.8	25.3 ± 1.7	25.1 ± 1.7		C#CCCCCCC [1-octyne] + CCn1cc[n+](C)c1.CS(=O)(=O)[O-]
23.6 ± 1.6	22.5 ± 1.5	21.7 ± 1.5	20.7 ± 1.4	20 ± 1.4		COC(C)(C)C [2-methoxy-2-methylpropane] + CCn1cc[n+](C)c1.CS(=O)(=O)[O-]
0.799 ± 0.052	0.818 ± 0.053	0.841 ± 0.054	0.86 ± 0.06	0.877 ± 0.056	0.892 ± 0.057	CC#N [acetonitrile] + CCn1cc[n+](C)c1.CS(=O)(=O)[O-]
308 ± 21	318 ± 22	328 ± 23	338 ± 23	348 ± 24	358 ± 25	c1ccccc1 [benzene] + CCn1cc[n+](C)c1.CS(=O)(=O)[O-]
113 ± 8	99.8 ± 6.9	90.7 ± 6.2	79.9 ± 5.5	72.6 ± 5		C1CCCCCC1 [cycloheptane] + CCn1cc[n+](C)c1.CS(=O)(=O)[O-]
83.6 ± 5.7	73.9 ± 5.1	67.6 ± 4.6	59.6 ± 4.1	53.7 ± 3.7		C1CCCCC1 [cyclohexane] + CCn1cc[n+](C)c1.CS(=O)(=O)[O-]
46.2 ± 3.2	42.2 ± 2.9	39.5 ± 2.7	36.1 ± 2.5	33 ± 2.3		C1CCCC1 [cyclopentane] + CCn1cc[n+](C)c1.CS(=O)(=O)[O-]
80.3 ± 5.5	72.7 ± 5	67.5 ± 4.6	62.8 ± 4.3	58.1 ± 4		CCCOCCC [dipropyl ether] + CCn1cc[n+](C)c1.CS(=O)(=O)[O-]
378 ± 26	328 ± 23	273 ± 19	244 ± 17			CCCCCCC [heptane] + CCn1cc[n+](C)c1.CS(=O)(=O)[O-]
0.223 ± 0.029	0.225 ± 0.029	0.228 ± 0.029	0.229 ± 0.029	0.232 ± 0.029	0.234 ± 0.029	CO [methanol] + CCn1cc[n+](C)c1.CS(=O)(=O)[O-]
911 ± 63	779 ± 54	690 ± 48	607 ± 42	547 ± 38	507 ± 35	CCCCCCCCC [nonane] + CCn1cc[n+](C)c1.CS(=O)(=O)[O-]
258 ± 18	228 ± 16	206 ± 14	187 ± 13	170 ± 12		C=CCCCCCC [oct-1-ene] + CCn1cc[n+](C)c1.CS(=O)(=O)[O-]
597 ± 41	505 ± 35	453 ± 31	388 ± 27	350 ± 24		CCCCCCCC [octane] + CCn1cc[n+](C)c1.CS(=O)(=O)[O-]
7.83 ± 0.53	7.66 ± 0.52	7.52 ± 0.51	7.39 ± 0.5	7.26 ± 0.5	7.14 ± 0.49	CCCC(C)=O [pentan-2-one] + CCn1cc[n+](C)c1.CS(=O)(=O)[O-]
8.08 ± 0.55	7.96 ± 0.54	7.86 ± 0.54	7.75 ± 0.53	7.63 ± 0.52	7.53 ± 0.51	CCC(=O)CC [pentan-3-one] + CCn1cc[n+](C)c1.CS(=O)(=O)[O-]
